From patent US6831087B2, “Pyridine substituted isoquinoline derivatives” (Hoffmann-La Roche Inc., priority 2001, dated 2004)
Where a name gives a salt, the structure may show the parent alone.

Assays:
NMDA-receptor subtype 2B = target: T1, NMDA-receptor subtype 2B (Rattus norvegicus, UniProt P35439+Q00960); assay: 3H-Ro 25-6981 binding (displacement) on rat brain membranes; conditions: displacement of 5 nM 3H-Ro 25-6981, rat whole brain minus cerebellum and medulla oblongata membranes, 2 hours at 4° C., pH 7.4
T1 construct: Membranes were prepared by homogenization of the whole brain minus cerebellum and medulla oblongata; from tissue; host or cells: rat whole brain minus cerebellum and medulla oblongata (membranes)
T1 sequence (Q00960 27-1482, other chains not shown): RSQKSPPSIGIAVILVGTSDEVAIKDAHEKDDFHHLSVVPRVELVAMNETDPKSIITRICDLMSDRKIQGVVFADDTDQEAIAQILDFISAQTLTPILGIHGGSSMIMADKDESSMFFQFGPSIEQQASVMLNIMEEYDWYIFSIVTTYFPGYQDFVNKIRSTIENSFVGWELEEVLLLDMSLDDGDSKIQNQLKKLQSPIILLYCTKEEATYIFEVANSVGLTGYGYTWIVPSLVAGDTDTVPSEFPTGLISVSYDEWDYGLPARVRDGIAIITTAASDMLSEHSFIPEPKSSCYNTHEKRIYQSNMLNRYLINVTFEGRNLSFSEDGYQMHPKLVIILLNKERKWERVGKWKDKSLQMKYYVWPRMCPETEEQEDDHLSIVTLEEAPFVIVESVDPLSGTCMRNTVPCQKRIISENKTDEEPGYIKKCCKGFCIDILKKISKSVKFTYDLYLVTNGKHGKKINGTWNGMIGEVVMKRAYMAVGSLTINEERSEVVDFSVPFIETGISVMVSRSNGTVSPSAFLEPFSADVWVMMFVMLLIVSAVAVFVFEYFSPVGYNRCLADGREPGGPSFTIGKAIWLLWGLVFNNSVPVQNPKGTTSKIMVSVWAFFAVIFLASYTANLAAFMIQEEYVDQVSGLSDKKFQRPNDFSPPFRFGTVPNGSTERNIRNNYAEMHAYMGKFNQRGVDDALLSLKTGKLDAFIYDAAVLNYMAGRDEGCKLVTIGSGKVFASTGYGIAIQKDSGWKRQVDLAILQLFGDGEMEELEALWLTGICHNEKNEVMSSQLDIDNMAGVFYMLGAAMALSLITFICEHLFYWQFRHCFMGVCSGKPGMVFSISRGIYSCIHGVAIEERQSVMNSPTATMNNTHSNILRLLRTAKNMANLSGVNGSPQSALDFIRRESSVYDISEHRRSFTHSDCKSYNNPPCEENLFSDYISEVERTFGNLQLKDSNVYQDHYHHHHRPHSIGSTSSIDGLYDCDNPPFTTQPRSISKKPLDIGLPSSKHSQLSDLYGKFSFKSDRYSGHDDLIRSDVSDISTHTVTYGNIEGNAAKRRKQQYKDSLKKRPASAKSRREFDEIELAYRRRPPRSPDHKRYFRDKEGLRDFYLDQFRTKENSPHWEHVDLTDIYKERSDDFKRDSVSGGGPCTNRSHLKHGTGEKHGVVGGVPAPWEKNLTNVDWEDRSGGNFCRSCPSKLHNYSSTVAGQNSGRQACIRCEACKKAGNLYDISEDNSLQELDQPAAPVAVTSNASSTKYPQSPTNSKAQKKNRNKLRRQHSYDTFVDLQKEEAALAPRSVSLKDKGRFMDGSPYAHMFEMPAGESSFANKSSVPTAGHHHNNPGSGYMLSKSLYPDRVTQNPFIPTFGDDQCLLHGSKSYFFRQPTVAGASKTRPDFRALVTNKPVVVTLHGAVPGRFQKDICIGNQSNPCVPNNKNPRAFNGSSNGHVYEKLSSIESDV
Procedure: ^3H-Ro 25-6981 binding (Ro 25-6981 is [R-(R*,S*)]-α-(4-hydroxy-phenyl)-β-methyl-4-(phenyl-methyl)-1-piperidine propanol)
Male Füllinsdorf albino rats weighing between 150-200 g were used. Membranes were prepared by homogenization of the whole brain minus cerebellum and medulla oblongata with a Polytron (10.000 rpm, 30 seconds), in 25 volumes of a cold Tris-HCl 50 mM, EDTA 10 mM, pH 7.1 buffer. The homogenate was centrifuged at 48,000 g for 10 minutes at 4° C. The pellet was resuspended using the Polytron in the same volume of buffer and the homogenate was incubated at 37° C. for 10 minutes. After centrifugation the pellet was homogenized in the same buffer and frozen at −80° C. for at least 16 hours but not more than 10 days. For the binding assay the homogenate was thawed at 37° C., centrifuged and the pellet was washed three times as above in a Tris-HCl 5 mM, pH 7.4 cold buffer. The final pellet was resuspended in the same buffer and used at a final concentration of […].
^3H-Ro 25-6981 binding experiments were performed using a Tris-HCl 50 mM, pH 7.4 buffer. For displacement experiments 5 nM of ^3H-Ro 25-6981 were used and non specific binding was measured using 10 mM of tetrahydroisoquinoline and usually it accounts for 10% of the total. The incubation time was 2 hours at 4° C. and the assay was stopped by filtration on Whatmann GF/B glass fiber filters (Unifilter-96, Packard, Zurich, Switzerland). The filters were washed 5 times with cold buffer. The radioactivity on the filter was counted on a Packard Top-count microplate scintillation counter after addition of […] of microscint 40 (Canberra Packard S. A., Züirich, Switzerland).
The above procedure was performed to determine data for calculation of an IC50 value. The IC50 value is a concentration expressed in micromoles (μM) for a test compound at which 50% of the ligand (in this determination, ^3H-Ro 25-6981) bonded to the receptor is displaced. The binding ability of the compounds of the invention was measured in vitro using a minimum of 10 concentrations and repeated at least once. The specific binding at each concentration was then calculated as the % of the maximum specific binding (100%) obtained in the same experiment, in the absence of a test compound. Competitive displacement of ^3H-Ro 25-6981 was observed, with complete displacement of the radioligand from specific binding sites (usually about 0% of specific binding at the highest concentrations tested). An IC50 value was then calculated with all the ten datapoints (% of specific bound) by plotting the data on a semilogarithmic scale with a sigmoidal fit (Log of the molar concentration on X-axis vs. % of specific bound on the Y-axis) using Microsoft Excel fit software or Microcal Origin software. The pooled normalized values were analyzed using a non-linear regression calculation program which provide IC50 with their relative upper and lower 95% confidence limits.

SMILES	melting point	IC50 (NMDA-receptor subtype 2B)
CCNc1ccnc(N2CCc3ccccc3C2)c1 (as salt: fumarate) [Example 16, [2-(3,4-Dihydro-1H-isoquinolin-2-yl)-pyridin-4-yl]-ethyl-amine]	73 to 74 °C	
Clc1cccc2c1CN(c1ccncc1)CC2 (as salt: fumarate) [Example 26, 8-Chloro-2-pyridin-4-yl-1,2,3,4-tetrahydro-isoquinoline]	178 to 179 °C	
Cc1cc(N2CCc3ccccc3C2)ccn1 (as salt: fumarate) [Example 31, 2-(2-Methyl-pyridin-4-yl)-1,2,3,4-tetrahydro-isoquinoline]	155 to 156 °C	
Cc1cc(N2CCc3ccccc3C2)cc(N)n1 (as salt: fumarate) [Example 32, 4-(3,4-Dihydro-1H-isoquinolin-2-yl)-6-methyl-pyridin-2-yl-amine]	> 270 °C	
Cc1cc(N2CCc3ccccc3C2)cc(NCCO)n1 (as salt: fumarate) [Example 35, 2-[4-(3,4-Dihydro-1H-isoquinolin-2-yl)-6-methyl-pyridin-2-yl-amino]-ethanol]	160 °C	
Nc1cc(N2CCc3ccccc3C2)nc2c1CCCC2 (as salt: hydrochloride) [Example 7, 2-(3,4-Dihydro-1H-isoquinolin-2-yl)-5,6,7,8-tetrahydro-quinolin-4-yl-amine]	109 to 110 °C	
CN1COCc2c1ccnc2N1CCc2ccccc2C1 (as salt: hydrochloride) [Example 14, 5-(3,4-Dihydro-1H-isoquinolin-2-yl)-1-methyl-1,4-dihydro-2H-pyrido[4,3-d][1,3]oxazine]	220 to 221 °C	
NCc1cccc(N2CCc3ccccc3C2)n1 (as salt: hydrochloride) [Example 22, C-[6-(3,4-Dihydro-1H-isoquinolin-2-yl)-pyridin-2-yl]-methylamine]	192 to 195 °C	
Clc1cccc2c1CCN(c1ccncc1)C2 (as salt: hydrochloride) [Example 25, 5-Chloro-2-pyridin-4-yl-1,2,3,4-tetrahydro-isoquinoline]	258 to 259 °C	
Clc1ccc2c(c1)CCN(c1ccncc1)C2 (as salt: hydrochloride) [Example 27, 6-Chloro-2-pyridin-4-yl-1,2,3,4-tetrahydro-isoquinoline]	> 250 °C	
Clc1ccc2c(c1)CN(c1ccncc1)CC2 (as salt: hydrochloride) [Example 28, 7-Chloro-2-pyridin-4-yl-1,2,3,4-tetrahydro-isoquinoline]	100 to 101 °C	
CCOC(=O)C(=O)Nc1cc(N2CCc3ccccc3C2)cc(C)n1 (as salt: hydrochloride) [Example 33, N-[4-(3,4-Dihydro-1H-isoquinolin-2-yl)-6-methyl-pyridin-2-yl]-oxalamic acid ethyl ester]	> 160 °C (dec.)	
CC1CN(c2cc(N)ccn2)Cc2ccccc21 (racemic) (as salt: fumarate) [Example 2, Rac.-2-(4-Methyl-3,4-dihydro-1H-isoquinolin-2-yl)-pyridin-4-yl-amine]	178 to 179 °C	
CC1CN(c2ccncc2)Cc2ccccc21 (racemic) (as salt: hydrochloride) [Example 29, rac.-4-Methyl-2-pyridin-4-yl-1,2,3,4-tetrahydro-isoquinoline]	224 to 227 °C	
Nc1ccnc(N2CCc3ccccc3C2)c1 [Example 1, 2-(3,4-Dihydro-1H-isoquinolin-2-yl)-pyridin-4-yl-amine]		8 nM
Cc1cnc(N2CCc3ccccc3C2)cc1N [Example 3, 2-(3,4-Dihydro-1H-isoquinolin-2-yl)-5-methyl-pyridin-4-yl-amine]		11 nM
Cc1cc(N)cc(N2CCc3ccccc3C2)n1 [Example 4, 2-(3,4-Dihydro-1H-isoquinolin-2-yl)-6-methyl-pyridin-4-yl-amine]		14 nM
CCc1cc(N)cc(N2CCc3ccccc3C2)n1 [Example 5, 2-(3,4-Dihydro-1H-isoquinolin-2-yl)-6-ethyl-pyridin-4-yl-amine]		5.3 nM
Nc1cc(CO)nc(N2CCc3ccccc3C2)c1 [Example 6, [4-Amino-6-(3,4-dihydro-1H-isoquinolin-2-yl)-pyridin-2-yl]-methanol]		11 nM
OCCNc1ccnc(N2CCc3ccccc3C2)c1 [Example 9, 2-[2-(3,4-Dihydro-1H-isoquinolin-2-yl)-pyridin-4-yl-amino]-ethanol]		6 nM
Cc1cc(NCCO)cc(N2CCc3ccccc3C2)n1 [Example 10, 2-[2-(3,4-Dihydro-1H-isoquinolin-2-yl)-6-methyl-pyridin-4-yl-amino]-ethanol]		11 nM
Nc1cc(N2CCc3ccccc3C2)ccn1 [Example 30, 4-(3,4-Dihydro-1H-isoquinolin-2-yl)-pyridin-2-yl-amine]	160 to 161 °C	4 nM
Cc1cc(N2CCc3ccccc3C2)ccn1 [Example 31, 2-(2-Methyl-pyridin-4-yl)-1,2,3,4-tetrahydro-isoquinoline]		20 nM
Cc1cc(N2CCc3ccccc3C2)cc(N)n1 [Example 32, 4-(3,4-Dihydro-1H-isoquinolin-2-yl)-6-methyl-pyridin-2-yl-amine]		11 nM
CCOC(=O)C(=O)Nc1cc(N2CCc3ccccc3C2)cc(C)n1 [Example 33, N-[4-(3,4-Dihydro-1H-isoquinolin-2-yl)-6-methyl-pyridin-2-yl]-oxalamic acid ethyl ester]		20 nM
Cc1cc(N2CCc3ccccc3C2)cc(NC(=O)CO)n1 [Example 34, N-[4-(3,4-Dihydro-1H-isoquinolin-2-yl)-6-methyl-pyridin-2-yl]-2-hydroxy-acetamide]	160 to 162 °C	
Cc1cc(N2CCc3ccccc3C2)cc(NCCO)n1 [Example 35, 2-[4-(3,4-Dihydro-1H-isoquinolin-2-yl)-6-methyl-pyridin-2-yl-amino]-ethanol]		4 nM
